tested on: HEK293 cells; test: HEK293 VLCFA-LPC IC50 determination (13C-labeled C26:0 LPC by UHPLC/MS); type: cell-based, human; details: Homo sapiens, HEK293, HEK293 cells; average of one or more replicates; read-out: Average HEK293 IC50
Description: HEK293 cells were treated with compounds, such as those listed in Tables A-E of Example 1, using the representative manual protocols described below. The protocols below were also adapted to a semi-automated protocol using standard methods in the art.
Cell Culture Growth Conditions:
HEK293 cells were maintained in FreeStyle F17 media (Gibco # A13835) supplemented with PenStrep (1%, Gibco #15070-063), Glutamax (2%, Gibco #35050-061), and Pluronic (0.1%, Gibco #24040-032) (“supplemented media”). Suspension cultures were grown in disposable Erlenmeyer flasks at about 120 rpm, 37° C., 5% CO2, and 80% humidity. Cell densities were kept between about 0.5 and 3 million cells per mL, in about 50-200 mL per flask.
Treatment of Cells with Compounds Provided Herein:
The cells were treated with compounds using either a total of 900 uL cell media volume (high-volume assay) or a total of 200 uL cell media volume (low-volume assay). In the high volume assay, 450 μL of supplemented media plus 13C-acetate (1.0 mg/mL, Sigma Aldrich #282014) were added to 0.5 μL of a compound (such as those in Tables A-E) in DMSO in a polypropylene v-bottom plate (Costar #3363) in 1 of 3 dilution schemes. The contents of each well were mixed and transferred to a sterile polypropylene deep-well v-bottom plate (Costar #3960). 450 μL of cultured HEK293 cells in supplemented media at a density of 1.0 million cells/mL was added to each well. In the low volume assay, 100 μL of supplemented media plus 13C-acetate (1.0 mg/mL, Sigma Aldrich #282014) were added to either 0.1 μL or 1.0 uL of a compound (such as those in Tables A-E) in DMSO in a polypropylene v-bottom plate (Costar #3363) in 1 of 3 dilution schemes. 100 μL of cultured HEK293 cells in supplemented media at a density of 1.0 million cells/mL was added to each well. The high volume and low volume plates were sealed with either AirPore Tape Sheets (Qiagen #19571) or Duetz plate covers to control evaporation and placed into a shaking incubator at 225 rpm, 37° C., 5% CO2, and 80% humidity for 48 hours. For both the high and low volume assays the 3 dilution schemes used were as follows:
Following incubation, treated cells were harvested by centrifugation at 1690×g for 10 minutes. In the high volume assay 200 uL treated cells were transferred to a polypropylene v-bottom plate (Costar #3363) prior to centrifugation. In the low volume assay the incubation plate was centrifuged directly, without a transfer step. The supernatant was then discarded and the analytes were extracted using 1 of 2 different extraction schemes. In the first scheme, the cell pellet was visibly broken up by mixing the cell pellet up and down in 100 μL of hexane/isopropanol (60:40) 20 times. The resulting mixture was transferred to a 0.45 μm Durapore membrane (Millipore #MSH VN4510) atop a polypropylene v-bottom plate (Costar #3363) and filtered by centrifugation at 1690×g for 5 minutes. 120 μL of n-butanol containing 10 nM C13:0 lysophosphatidylcholine was added to the filtrate as an injection control standard, then the entire volume was transferred to a new Durapore membrane/v-bottom plate. In the second scheme, the cell pellet was visibly broken up by mixing the cell pellet up and down in 180 μL of methanol containing 10 nM C13:0 lysophosphatidylcholine 20 times. The resulting mixture was transferred to a 0.45 μm Durapore membrane (Millipore #MSH VN4510) atop a polypropylene v-bottom plate and filtered by centrifugation at 1690×g for 5 minutes. In both schemes, the plates were then sealed with pierceable capmats (Micronic MP53017) and stored at −20 OC until analyzed.
UHPLC/Mass Spectrometry Readout:
The filtered organic extraction was analyzed with a 1290 Agilent Infinity Series UHPLC coupled to an ABI Sciex QTrap 6500 mass spectrometer. […]

Structure (SMILES) | IC50 [nM]
O=C(Nc1ccn(-c2ccccc2)n1)C1(c2ccccc2)CC1 [Compound 2, 1-phenyl-N-(1-phenyl-1H-pyrazol-3-yl)cyclopropane-1-carboxamide] | 20
O=C(Cc1ccccc1F)Nc1ccn(-c2ccnc(Cl)c2)n1 [Compound 4, N-[1-(2-chloro-4-pyridyl)pyrazol-3-yl]-2-(2-fluorophenyl)acetamide] | 650
O=C(Cc1ccsc1)Nc1ccn(-c2ccccc2)n1 [Compound 5, N-(1-phenylpyrazol-3-yl)-2-(3-thienyl)acetamide] | 410
O=C(Cc1ccc(Cl)cc1)Nc1ccn(-c2ccccc2)n1 [Compound 6, 2-(4-chlorophenyl)-N-(1-phenylpyrazol-3-yl)acetamide] | > 5000
COc1cccc(CC(=O)Nc2ccn(-c3ccccc3)n2)c1OC [Compound 7, 2-(2,3-dimethoxyphenyl)-N-(1-phenylpyrazol-3-yl)acetamide] | > 5000
COc1cc(CC(=O)Nc2ccn(-c3ccccc3)n2)ccc1O [Compound 9, 2-(4-hydroxy-3-methoxy-phenyl)-N-(1-phenylpyrazol-3-yl)acetamide] | > 5000
CC(C)c1ccc(CC(=O)Nc2ccn(-c3ccccc3)n2)cc1 [Compound 10, 2-(4-isopropylphenyl)-N-(1-phenylpyrazol-3-yl)acetamide] | 4400
Cc1ccccc1C1(C(=O)Nc2ccn(-c3ccccc3)n2)CC1 [Compound 12, 1-(o-tolyl)-N-(1-phenylpyrazol-3-yl)cyclopropanecarboxamide] | 130
O=C(Nc1ccn(-c2ccccc2)n1)C1(c2ccc(F)cc2)CC1 [Compound 13, 1-(4-fluorophenyl)-N-(1-phenylpyrazol-3-yl)cyclopropanecarboxamide] | 82
O=C(Cc1ccccc1F)Nc1ccn(-c2ccncc2)n1 [Compound 14, 2-(2-fluorophenyl)-N-[1-(4-pyridyl)pyrazol-3-yl]acetamide] | 580
O=C(Cc1ccccc1F)Nc1ccn(-c2cncnc2)n1 [Compound 15, 2-(2-fluorophenyl)-N-(1-pyrimidin-5-ylpyrazol-3-yl)acetamide] | 1000
O=C(Cc1ccc(F)cc1)Nc1ccn(-c2ccccc2)n1 [Compound 16, 2-(4-fluorophenyl)-N-(1-phenylpyrazol-3-yl)acetamide] | 330
O=C(Cc1cc(F)c(F)c(F)c1)Nc1ccn(-c2ccccc2)n1 [Compound 17, N-(1-phenylpyrazol-3-yl)-2-(3,4,5-trifluorophenyl)acetamide] | > 5000
O=C(Cc1ccc(F)cc1F)Nc1ccn(-c2ccccc2)n1 [Compound 18, 2-(2,4-difluorophenyl)-N-(1-phenylpyrazol-3-yl)acetamide] | 260
O=C(Nc1ccn(-c2ccccc2)n1)C1(c2cccc(Cl)c2)CC1 [Compound 19, 1-(3-chlorophenyl)-N-(1-phenylpyrazol-3-yl)cyclopropanecarboxamide] | 250
C[C@H](C(=O)Nc1ccn(-c2ccccc2)n1)c1ccccc1 [Compound 20, (2S)-2-phenyl-N-(1-phenylpyrazol-3-yl)propanamide] | 26
O=C(Nc1ccn(-c2ccccc2)n1)C1(c2cccc(F)c2)CC1 [Compound 21, 1-(3-fluorophenyl)-N-(1-phenylpyrazol-3-yl)cyclopropanecarboxamide] | 150
O=C(Nc1ccn(-c2ccccc2)n1)C1(c2ccccc2F)CC1 [Compound 22, 1-(2-fluorophenyl)-N-(1-phenylpyrazol-3-yl)cyclopropanecarboxamide] | 12
O=C(Nc1ccn(-c2ccccc2)n1)C1(c2ccc(Cl)cc2)CC1 [Compound 23, 1-(4-chlorophenyl)-N-(1-phenylpyrazol-3-yl)cyclopropanecarboxamide] | 830
O=C(Nc1ccn(-c2ccccc2)n1)C1(c2ccccc2Cl)CC1 [Compound 24, 1-(2-chlorophenyl)-N-(1-phenylpyrazol-3-yl)cyclopropanecarboxamide] | 41

Structure (SMILES) | IC50 [nM]
COc1ccc(C2(C(=O)Nc3ccn(-c4ccccc4)n3)CC2)cc1 [Compound 25, 1-(4-methoxyphenyl)-N-(1-phenylpyrazol-3-yl)cyclopropanecarboxamide] | 3600
COc1cccc(C2(C(=O)Nc3ccn(-c4ccccc4)n3)CC2)c1 [Compound 26, 1-(3-methoxyphenyl)-N-(1-phenylpyrazol-3-yl)cyclopropanecarboxamide] | 270
C[C@@H](C(=O)Nc1ccn(-c2ccccc2)n1)c1ccccc1 [Compound 27, (2R)-2-phenyl-N-(1-phenylpyrazol-3-yl)propanamide] | 210
CC[C@@H](C(=O)Nc1ccn(-c2ccccc2)n1)c1ccccc1 [Compound 28, (2R)-2-phenyl-N-(1-phenylpyrazol-3-yl)butanamide] | 580
O=C(Nc1ccn(-c2ccccc2)n1)C1(c2cc(F)cc(C(F)(F)F)c2)CC1 [Compound 29, 1-[3-fluoro-5-(trifluoromethyl)phenyl]-N-(1-phenylpyrazol-3-yl)cyclopropanecarboxamide] | 1900
CC(C)(C(=O)Nc1ccn(-c2ccccc2)n1)c1ccccc1 [Compound 30, 2-methyl-2-phenyl-N-(1-phenyl-1H-pyrazol-3-yl)propanamide] | 320
CC(C)C(C(=O)Nc1ccn(-c2ccccc2)n1)c1ccccc1 (stereo not drawn) [Compound 31, 3-methyl-2-phenyl-N-(1-phenylpyrazol-3-yl)butanamide] | > 2000
Cc1cccc(C2(C(=O)Nc3ccn(-c4ccccc4)n3)CC2)c1 [Compound 32, 1-(m-tolyl)-N-(1-phenylpyrazol-3-yl)cyclopropanecarboxamide] | 650
CCOc1ccc(C2(C(=O)Nc3ccn(-c4ccccc4)n3)CC2)cc1 [Compound 33, 1-(4-ethoxyphenyl)-N-(1-phenylpyrazol-3-yl)cyclopropanecarboxamide] | 990
O=C(Nc1ccn(-c2ccccc2)n1)C1(c2ccccc2)CCCC1 [Compound 34, 1-phenyl-N-(1-phenylpyrazol-3-yl)cyclopentanecarboxamide] | 2100
O=C(Nc1ccn(-c2ccccc2)n1)C1(c2ccccc2)CCC1 [Compound 35, 1-phenyl-N-(1-phenylpyrazol-3-yl)cyclobutanecarboxamide] | 330
Cc1cc(C)cc(C2(C(=O)Nc3ccn(-c4ccccc4)n3)CC2)c1 [Compound 36, 1-(3,5-dimethylphenyl)-N-(1-phenylpyrazol-3-yl)cyclopropanecarboxamide] | > 5000
O=C(Cc1cccs1)Nc1ccn(-c2ccccc2)n1 [Compound 37, N-(1-phenylpyrazol-3-yl)-2-(2-thienyl)acetamide] | 64
O=C(Cc1ccncc1)Nc1ccn(-c2ccccc2)n1 [Compound 38, N-(1-phenylpyrazol-3-yl)-2-(4-pyridyl)acetamide] | > 5000
O=C(Cc1cccnc1)Nc1ccn(-c2ccccc2)n1 [Compound 39, N-(1-phenylpyrazol-3-yl)-2-(3-pyridyl)acetamide] | > 5000
O=C(Cc1ccccn1)Nc1ccn(-c2ccccc2)n1 [Compound 40, N-(1-phenylpyrazol-3-yl)-2-(2-pyridyl)acetamide] | 1500
O=C(Cc1ccccc1)Nc1ccn(-c2ccccc2)n1 [Compound 41, 2-phenyl-N-(1-phenylpyrazol-3-yl)acetamide] | 73
Cc1ccc(CC(=O)Nc2ccn(-c3ccccc3)n2)cc1 [Compound 42, N-(1-phenylpyrazol-3-yl)-2-(p-tolyl)acetamide] | 710
Cc1cccc(CC(=O)Nc2ccn(-c3ccccc3)n2)c1 [Compound 43, 2-(m-tolyl)-N-(1-phenylpyrazol-3-yl)acetamide] | 1900
